Assays:
Sw620 = test: Cell viability, Sw620 colon cancer cells; format: cell-based, human; details: Sw620, Colon
H23 = test: Cell viability, H23 lung cancer cells; format: cell-based, human; details: H23, Lung

O=Cc1cn(Cc2ccc(Cl)cc2)c2ccccc12 [Oncrasin K001, 1H-Indole-3-carboxaldehyde, 1-[(4-chlorophenyl)methyl]-(9CI)]
IC50 (−LogM) (Sw620): 5.4 −LogM | IC50 (−LogM) (H23): >4.5 −LogM

— patent publication US8883841B2, “Oncogenic ras-specific cytotoxic compound and methods of use thereof” (The Board of Regents of the University of Texas System, priority 2005, dated 2014)
